Assay results from patent US20240391926A1, “SPIROINDOLINONE COMPOUNDS AS Kv1.3 POTASSIUM SHAKER CHANNEL BLOCKERS” (D.E. Shaw Research, LLC, priority 2021, published 2024).

Biological target: T1, Kv1.3 potassium channel (Homo sapiens, UniProt P22001)
T1 construct: expressed in transfected cells
Experiment: Kv1.3 potassium channel blocker activity, automated whole-cell patch clamp (Patchliner) in CHO-K1 cells stably expressing Kv1.3
Type: cell-based
Conditions: 30 nM-100 μM
Experimental: This assay is used to evaluate the disclosed compounds' activities as Kv1.3 potassium channel blockers.
CHO-K1 cells stably expressing Kv1.3 were grown in DMEM containing 10% heat-inactivated FBS, 1 mM sodium pyruvate, 2 mM L-glutamine, and G418 (500 μg/ml). Cells were grown in culture flasks at 37° C. in a 5% CO2-humidified incubator.
The cells were bathed in an extracellular solution containing 140 mM NaCl, 4 mM KCl, 2 mM CaCl2), 1 mM MgCl2, 5 mM glucose, 10 mM HEPES; pH adjusted to 7.4 with NaOH; 295-305 mOsm. The internal solution contained 50 mM KCl, 10 mM NaCl, 60 mM KF, 20 mM EGTA, 10 mM HEPES; pH adjusted to 7.2 with KOH; 285 mOsm. All compounds were dissolved in DMSO at 30 mM. Compound stock solutions were freshly diluted with external solution to concentrations of 30 nM, 100 nM, 300 nM, 1 μM, 3 μM, 10 μM, 30 μM and 100 μM. The highest content of DMSO (0.3%) was present in 100 μM.
The currents were evoked by applying 100 ms depolarizing pulses from −90 mV (holding potential) to +40 mV were applied with 0.1 Hz frequency. Control (compound-free) and compound pulse trains for each compound concentration applied contained 20 pulses. 10-second breaks were used between pulse trains (see Table A below).
Whole-cell current recordings and compound application were enabled by means of an automated patch clamp platform Patchliner (Nanion Technologies GmbH). EPC 10 patch clamp amplifier (HEKA Elektronik Dr. Schulze GmbH) along with Patchmaster software (HEKA Elektronik Dr. Schulze GmbH) was used for data acquisition. Data were sampled at 10 kHz without filtering. Passive leak currents were subtracted online using a P/4 procedure (HEKA Elektronik Dr. Schulze GmbH). Increasing compound concentrations were applied consecutively to the same cell without washouts in between. Total compound incubation time before the next pulse train was not longer than 10 seconds. Peak current inhibition was observed during compound equilibration.
AUC and peak values were obtained with Patchmaster (HEKA Elektronik Dr. Schulze GmbH). To determine IC50, the last single pulse in the pulse train corresponding to a given compound concentration was used. Obtained AUC and peak values in the presence of compound were normalized to control values in the absence of compound. Using Origin (OridinLab), IC50 was derived from data fit to Hill equation: Icompound/Icontrol=(100−A)/(1+([compound]/IC50)nH)+A, where IC50 value is the concentration at which current inhibition is half-maximal, [compound] is the applied compound concentration, A is the fraction of current that is not blocked and nH is the Hill coefficient.

T1 sequence (P22001 whole entry): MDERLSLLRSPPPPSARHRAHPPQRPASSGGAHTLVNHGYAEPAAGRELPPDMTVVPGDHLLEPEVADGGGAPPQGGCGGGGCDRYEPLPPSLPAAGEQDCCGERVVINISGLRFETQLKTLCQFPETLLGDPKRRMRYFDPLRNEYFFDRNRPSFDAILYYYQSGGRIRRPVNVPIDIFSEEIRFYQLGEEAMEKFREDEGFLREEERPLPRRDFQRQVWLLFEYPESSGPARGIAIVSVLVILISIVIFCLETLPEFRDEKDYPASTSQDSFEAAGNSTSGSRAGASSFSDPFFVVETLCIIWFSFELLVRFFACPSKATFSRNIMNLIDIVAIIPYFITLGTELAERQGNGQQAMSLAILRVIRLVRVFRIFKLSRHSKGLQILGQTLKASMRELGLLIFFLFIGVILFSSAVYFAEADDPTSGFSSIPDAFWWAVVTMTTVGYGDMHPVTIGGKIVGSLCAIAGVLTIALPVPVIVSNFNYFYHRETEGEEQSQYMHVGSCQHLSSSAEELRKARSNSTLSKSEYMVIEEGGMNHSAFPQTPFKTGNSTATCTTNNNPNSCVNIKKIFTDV

IC50 [µM]	Structure (SMILES)
< 3	O=C(Cc1cc[nH]n1)N1CC[C@]2(C1)C(=O)Nc1cc(Cl)c(Cl)cc12 [Compound 73, (S)-1′-(2-(1H-pyrazol-3-yl)acetyl)-5,6-dichlorospiro[indoline-3,3′-pyrrolidin]-2-one]
< 1	O=C([C@H]1CNCCO1)N1CC[C@]2(C1)C(=O)Nc1cc(Cl)c(Cl)cc12 [Compound 10, (S)-5,6-dichloro-1′-((R)-morpholine-2-carbonyl)spiro[indoline-3,3′-pyrrolidin]-2-one]
< 3	Cn1ccc(C(=O)N2CC[C@]3(C2)C(=O)Nc2cc(Cl)c(Cl)cc23)cc1=O [Compound 82, (S)-5,6-dichloro-1′-(1-methyl-2-oxo-1,2-dihydropyridine-4-carbonyl)spiro[indoline-3,3′-pyrrolidin]-2-one]
< 1	Nc1ccnc(N2CC[C@]3(C2)C(=O)Nc2cc(Cl)c(Cl)cc23)n1 [Compound 139, (S)-1′-(4-aminopyrimidin-2-yl)-5,6-dichlorospiro[indoline-3,3′-pyrrolidin]-2-one]
< 10	O=C([C@H]1CCCO1)N1CC[C@]2(C1)C(=O)Nc1cc(Cl)c(Cl)cc12 [Compound 20, (S)-5,6-dichloro-1′-((R)-tetrahydrofuran-2-carbonyl)spiro[indoline-3,3′-pyrrolidin]-2-one]
< 1	O=C([C@@H]1C[C@@H]1CO)N1CC[C@]2(C1)C(=O)Nc1cc(Cl)c(Cl)cc12 (relative stereo) [Compound 151, (S)-5,6-dichloro-1′-(1R,2S)-rel-2-(hydroxymethyl)cyclopropane-1-carbonyl)spiro[indoline-3,3′-pyrrolidin]-2-one]
< 10	C[C@@H]1C[C@@]2(CN1C(=O)CO)C(=O)Nc1cc(Cl)c(Cl)cc12 (single isomer, unassigned; isomer 2) [Compound 124, 5,6-dichloro-1′-(2-hydroxyacetyl)-5′-methyl-1H-spiro[indole-3,3′-pyrrolidin]-2-one isomer 2]
< 3	CN(C)CC(=O)N1CCC2(C1)C(=O)Nc1cc(Cl)c(Cl)cc12 (stereo not drawn) [Compound 7, 5,6-dichloro-1′-(dimethylglycyl)spiro[indoline-3,3′-pyrrolidin]-2-one]
< 3	CN1CC(C(=O)N2CC[C@]3(C2)C(=O)Nc2cc(Cl)c(Cl)cc23)CC1=O (stereo partly drawn) [Compound 81, (3S)-5,6-dichloro-1′-(1-methyl-5-oxopyrrolidine-3-carbonyl)spiro[indoline-3,3′-pyrrolidin]-2-one]
< 1	O=C([C@H]1CNC[C@@H]1O)N1CC[C@]2(C1)C(=O)Nc1cc(Cl)c(Cl)cc12 (single isomer, unassigned) [Compound 4]
< 10	CC(C)(O)CC(=O)N1CC[C@]2(C1)C(=O)Nc1cc(Cl)c(Cl)cc12 [Compound 87, (S)-5,6-dichloro-1′-(3-hydroxy-3-methylbutanoyl)spiro[indoline-3,3′-pyrrolidin]-2-one]
< 1	O=C([C@H]1CC[C@@H](O)[C@H](O)C1)N1CC[C@]2(C1)C(=O)Nc1cc(Cl)c(Cl)cc12 (single isomer, unassigned; isomer 1) [Compound 107]
< 3	O=C1CC(C(=O)N2CC[C@]3(C2)C(=O)Nc2cc(Cl)c(Cl)cc23)CN1 (single isomer, unassigned; isomer 2) [Compound 75]
< 3	O=C(N1CC[C@]2(C1)C(=O)Nc1cc(Cl)c(Cl)cc12)[C@@]1(O)CCNC1 (single isomer, unassigned; isomer 2) [Compound 31]
< 10	O=C(C[C@@H](O)CO)N1CC[C@]2(C1)C(=O)Nc1cc(Cl)c(Cl)cc12 [Compound 77, (S)-5,6-dichloro-1′-((R)-3,4-dihydroxybutanoyl)spiro[indoline-3,3′-pyrrolidin]-2-one]
< 10	O=C(CC1(O)CCC1)N1CC[C@]2(C1)C(=O)Nc1cc(Cl)c(Cl)cc12 [Compound 90, (S)-5,6-dichloro-1′-(2-(1-hydroxycyclobutyl)acetyl)spiro[indoline-3,3′-pyrrolidin]-2-one]
< 3	O=C([C@@H]1CC[C@@](O)(CO)C1)N1CC[C@]2(C1)C(=O)Nc1cc(Cl)c(Cl)cc12 (single isomer, unassigned; isomer 2) [Compound 96]

IC50 [µM]	Structure (SMILES)
< 1	O=C([C@H]1CCCNC1)N1CC[C@]2(C1)C(=O)Nc1cc(Cl)c(Cl)cc12 [Compound 16, (S)-5,6-dichloro-1′-((S)-piperidine-3-carbonyl)spiro[indoline-3,3′-pyrrolidin]-2-one]
< 1	O=C1C[C@H](C(=O)N2CC[C@]3(C2)C(=O)Nc2cc(Cl)c(Cl)cc23)CN1 (single isomer, unassigned; isomer 1) [Compound 74]
< 3	O=C1Nc2cc(Cl)c(Cl)cc2[C@]12CCN(C(=O)[C@H]1CC[C@@H](O)CC1)C2 [Compound 51, (S)-5,6-dichloro-1′-((1s,4R)-4-hydroxycyclohexane-1-carbonyl)spiro[indoline-3,3′-pyrrolidin]-2-one]
< 1	N[C@H](CO)C(=O)N1CC[C@]2(C1)C(=O)Nc1cc(Cl)c(Cl)cc12 [Compound 43, (S)-1′-(D-seryl)-5,6-dichlorospiro[indoline-3,3′-pyrrolidin]-2-one]
< 1	O=C([C@@H]1C[C@H]1CO)N1CC[C@]2(C1)C(=O)Nc1cc(Cl)c(Cl)cc12 (relative stereo) [Compound 150, (S)-5,6-dichloro-1′-(1R,2R)-rel-2-(hydroxymethyl)cyclopropane-1-carbonyl)spiro[indoline-3,3′-pyrrolidin]-2-one]
< 10	Cn1cc(C(=O)N2CC[C@]3(C2)C(=O)Nc2cc(Cl)c(Cl)cc23)ccc1=O [Compound 83, (S)-5,6-dichloro-1′-(1-methyl-6-oxo-1,6-dihydropyridine-3-carbonyl)spiro[indoline-3,3′-pyrrolidin]-2-one]
< 1	Cc1cc(Cl)cc2c1NC(=O)[C@@]21CCN(C(=O)CO)C1 [Compound 140, (S)-5-chloro-1′-(2-hydroxyacetyl)-7-methylspiro[indoline-3,3′-pyrrolidin]-2-one]
< 3	C[C@H](O)C(=O)N1CC[C@]2(C1)C(=O)Nc1cc(Cl)c(Cl)cc12 [Compound 12, (S)-5,6-dichloro-1′-((S)-2-hydroxypropanoyl)spiro[indoline-3,3′-pyrrolidin]-2-one]
< 10	C[C@H]1N(C(=O)CO)CCC12C(=O)Nc1cc(Cl)c(Cl)cc12 (single isomer, unassigned; diastereoisomer 2) [Compound 134, 5,6-dichloro-1′-(2-hydroxyacetyl)-2′-methylspiro[indoline-3,3′-pyrrolidin]-2-one diastereoisomer 2]
< 1	C[C@@H]1C[C@]2(CN1C(=O)CO)C(=O)Nc1cc(Cl)c(Cl)cc12 (single isomer, unassigned; isomer 3) [Compound 125, 5,6-dichloro-1′-(2-hydroxyacetyl)-5′-methyl-1H-spiro[indole-3,3′-pyrrolidin]-2-one isomer 3]
< 1	Nc1cnc(N2CC[C@]3(C2)C(=O)Nc2cc(Cl)c(Cl)cc23)cn1 [Compound 144, (3S)-1′-(5-aminopyrazin-2-yl)-5,6-dichloro-1H-spiro[indole-3,3′-pyrrolidin]-2-one]
< 1	O=C(CCO)N1CC[C@]2(C1)C(=O)Nc1cc(Cl)c(Cl)cc12 [Compound 156, (S)-5,6-dichloro-1′-(3-hydroxypropanoyl)spiro[indoline-3,3′-pyrrolidin]-2-one]
< 1	NC(=O)N1CC[C@]2(C1)C(=O)Nc1cc(Cl)c(Cl)cc12 (single isomer, unassigned) [Compound 154]
< 3	O=C([C@H]1CC[C@H](CO)C1)N1CC[C@]2(C1)C(=O)Nc1cc(Cl)c(Cl)cc12 (relative stereo) [Compound 99, (3S)-5,6-dichloro-1′-[(1R,3R)-rel-3-(hydroxymethyl)cyclopentanecarbonyl]-1H-spiro[indole-3,3′-pyrrolidin]-2-one isomer 1]
< 3	O=C(C(CO)CO)N1CC[C@]2(C1)C(=O)Nc1cc(Cl)c(Cl)cc12 [Compound 19, (S)-5,6-dichloro-1′-(3-hydroxy-2-(hydroxymethyl)propanoyl)spiro[indoline-3,3′-pyrrolidin]-2-one]
< 1	O=C(N1CC[C@]2(C1)C(=O)Nc1cc(Cl)c(Cl)cc12)[C@@]1(F)CCCNC1 [Compound 48, (S)-5,6-dichloro-1′-((R)-3-fluoropiperidine-3-carbonyl)spiro[indoline-3,3′-pyrrolidin]-2-one]
